Results: US20220160656A1, “INTRANASALLY ADMINISTERED ANTIHISTAMINES AND USES THEREOF” (DBBH, LLC, priority 2019, published 2022)

What was measured:
[1] = in vitro; details: human; for recovery at 120 min: pH 7.4; for Papp at 120 min: apical dosing
Experimental: (§1) EpiAirway tissues, plated in 24-well plates, and accompanying culture medium and assay buffer solutions, were purchased from MatTek Corporation (Ashland, Mass.). According to the EpiAirway AIR-100 Use Protocol provided by MatTek, the tissues were returned to culture immediately upon receipt. In a tissue culture hood, using sterile technique, 1.0 mL of cold medium (AIR-100-ASY) was dispensed into each well of the 6-well plate (n=3) and one tissue insert was transferred to each of the wells. The apical surface of the tissue was exposed to the air (no medium was added to the insert). The tissues were equilibrated overnight at 37° C. in a 5% CO2 incubator. The culture medium was then replaced with fresh, pre-warmed medium until use.
(§2) The unidirectional permeation experiment was conducted according to protocol 18APCIP2 and relevant SOPs of Absorption Systems. Prior to the permeability assay, the culture medium in the plate was aspirated; and ˜1 mL of Dulbecco's phosphate-buffered saline (DPBS) was added to the well to remove any remaining residue of culture medium from the underside of the insert. The tissues were transferred to a 24-well plate with DPBS (750 μL) in each well as receiver, and dosing solution (400 μL) was added to each insert. A 100 μL aliquot was immediately removed as the 0-minute donor sample. Receiver samples (200 μL) were collected at 30, 60, and 120 minutes, replaced with an equal volume of fresh pre-warmed blank buffer at 30 and 60 minutes. The donor side was sampled (100 μL) at 0 and 120 minutes. The assay plate was placed in a humidified CO2 incubator at 37° C. during the assay period.
(§3) After 120 minutes, the tissues were rinsed with DPBS and gently dried with tissue wipes after aspiration of the assay buffer. The insert membranes with tissues attached were carefully removed from the insert apparatus, placed in a tared centrifuge tube, and weighed.
(§4) The apparent permeability coefficient (Papp) and recovery were calculated as follows:
Papp=(dCr/dt)×Vr/(A×Cini) (1)
(§5) Recovery (%)=[((Cr,final×Vr)+(Cd,final×Vd))/(Cini×Vd)]×100 (2)
(§6) Recovery (%)=[((Cr,final×Vr)+(Cd,final×Vd)+(Tissue Accumulation))/(Cini×Vd)]×100 (3)
(§7) where, • dCr/dt is the slope of cumulative receiver concentration vs. time in μM s^−1; • Vr is the volume of the receiver compartment; • Vd is the volume of the donor compartment; • A is the diffusional area of the membrane; • Cini is the donor concentration at 0 minutes in μM; • CD,final is the donor concentration at 120 minutes in μM; • Cr,final is the receiver concentration at 120 minutes in μM.
(§8) With DPBS, pH 7.4 used on both the donor and receiver sides, permeability was initiated with addition of 0.4 mL of dosing solution into the inserts and of 0.75 mL of blank buffer into the wells of the assay plate. The assay was performed for 120 minutes in a humidified incubator at 37° C.

[2] = in vitro; details: pH 7.4
[3] = tested on: EpiAirway tissues; details: EpiAirway tissues after 120 minutes
Experimental: as §1, §2, §3, §4
Papp=(dCr/dt)×Vr/(A×Cini) (1)
as §5, §6, §7, §8

[4] = tested on: rhinovirus colds; details: intranasal administration in a phosphate buffer vehicle, patients; cited from earlier work

Structure (SMILES)	recovery at 120 min [1]	Papp at 120 min ([1]; pH 7.4, Papp Average ± SD, EpiAirway tissues, DPBS pH 7.4, diphenhydramine 100 μM, atenolol 100 μM, caffeine 50 μM co-dosed)	Papp at 120 min ([1]; pH 7.4, Papp R1, EpiAirway tissues, DPBS pH 7.4, 120 minutes, 37° C., replicate R1)	Papp at 120 min ([1]; pH 7.4, Papp R2, EpiAirway tissues, DPBS pH 7.4, replicate R2)	Papp at 120 min ([1]; pH 7.4, Papp R3, EpiAirway tissues, DPBS pH 7.4, replicate R3)	recovery at 120 min, 100 μM [2]	Tissue Accumulation Average ± SD [3]	Tissue Accumulation R1 ([3]; replicate R1)	Tissue Accumulation R3 ([3]; replicate R3)	therapeutic effect in reducing signs and symptoms of rhinovirus colds [4]
Cn1c(=O)c2c(ncn2C)n(C)c1=O [Caffeine]	96.9%	29.1 ×10⁻⁶ cm/s	30.9 ×10⁻⁶ cm/s	28.2 ×10⁻⁶ cm/s	28.2 ×10⁻⁶ cm/s					
CN(C)CCOC(c1ccccc1)c1ccccc1 [Diphenhydramine]	103%					86.3%	0.212 ± 0.0222 nmol/mg	0.188 nmol/mg	0.218 nmol/mg	no therapeutic effect
CC(C)NCC(O)COc1ccc(CC(N)=O)cc1 (stereo not drawn) [Atenolol]	98.5%									
